From patent US20240358693A1, “METHODS OF TREATING PAIN” (Aisa Pharma, Inc., priority 2023, published 2024)

System: participants with SSc-RP
Assay: Scleroderma Health Assessment Questionnaire (SHAQ): disability indices and visual analog scales
Assay type: in vivo, human
Excerpt: The standard, validated, patient reported outcome measures tool for SSc patients, the Scleroderma Health Assessment Questionnaire (SHAQ), will be used to assess the participant qualify of life. Details are attached in the Appendix. The participant quality of life will be scored, and a disability index calculated for each questionnaire completed by the patient at Screening and each in-clinic visit. The absolute change in participant quality of life from baseline to the end of each dosing period will be calculated similar to frequency data as before.
The SHAQ includes a Raynaud's VAS, which will be reported at screening and each in-clinic visit. The absolute change in Raynaud-VAS, assessed by the participants response to the SHAQ question ‘In the past 7 days, how much have your Raynaud's interfered with your daily activities?’ at baseline and the end of each dosing period will be calculated similar to frequency data as before.
The SHAQ is used to calculate a Disability Index to assess the participant qualify of life. The eight categories assessed by the Disability Index are 1) dressing and grooming, 2) arising, 3) eating, 4) walking, 5) hygiene, 6) reach, 7) grip, and 8) common daily activities. For each of these categories, patients report the amount of difficulty they have in performing two or three specific activities.
There are four possible responses for the Disability Index questions: • Without any difficulty=0 • With some difficulty=1 • With much difficulty=2 • Unable to do=3. • The highest score reported by the patient for any component question of the eight categories determines the score for that category. • If a component question is left blank or the response is too ambiguous to assign a score, then the score for that category is determined by the remaining completed question(s). • If all component questions are blank or if more than one answer is given, then follow up with the respondent is required. • If the respondent's mark is between the response columns, then move it to the closest one. If it's directly between the two, move it to the higher one.
Each of the disability items on the SHAQ has a companion aids/devices variable that is used to record what type(s) of assistance, if any, the participant uses for his/her usual activities. These variables (see below) are coded as follows: • 0=No assistance is needed. • 1=A special device is used by the patient in his/her usual activities. • 2=The patient usually needs help from another person. • 3=The patient usually needs BOTH a special device AND help from another person.
The scoring variables and scoring rules permit the computation of two disability indices, the Standard Disability Index and the Alternative Disability Index.
This question results in a new set of category scores that are computed by adjusting the score for each category, if necessary, based on the patient's use of an aid or device or assistance for that category. If either devices and/or help from another person are checked for a category, the score is set to “2”, unless the score is already “3” (i.e., scores of “0” or “1” are increased to “2”). For example, if the highest score for the dressing category is “1”, and the patient says they use a device for dressing, the computed category score would be “2”. The sum of the computed categories scores is then calculated and divided by the number of categories answered. This gives a score in the 0 to 3 range.
The aid and device variables are not used to calculate the alternative disability index; it is calculated by adding the scores for each of the categories and dividing by the number of categories answered. This gives a score in the 0 to 3 range.
The standard, validated, patient reported outcome measures tool for SSc patients, the SHAQ, was collected at the time points specified in the study schedules (FIG. 2 and FIGS. 4A and 4B) to assess the participant's quality of life. The SHAQ included a Raynaud's VAS that will also be reported separately.

[1] = Pooled Cilnidipine 10 mg and Cilnidipine 10 mg + Tadalafil 5 mg (N = 9), sensitivity analysis, Modified ITT, Part A
[2] = Pooled Cilnidipine 20 mg and Cilnidipine 20 mg + Tadalafil 5 mg (N = 7), sensitivity analysis, Modified ITT, Part A
[3] = Pooled Cilnidipine (10 mg or 20 mg) (N = 7)
[4] = Pooled Cilnidipine (10 mg or 20 mg) (N = 7), n 6
[5] = Pooled Cilnidipine (N = 6), Day 12, Modified ITT, SSc patients, Part A
[6] = Pooled Cilnidipine (N = 7), sensitivity analysis, Modified ITT, Part A

## COCCOC(=O)C1=C(C)NC(C)=C(C(=O)OC/C=C/c2ccccc2)C1c1cccc([N+](=O)[O-])c1 (stereo not drawn) [Cilnidipine, cilnidipine]
[1]
  SHAQ VAS Raynaud's: Percent Change from Baseline, Mean: −9.97%
  SHAQ VAS Raynaud's: Percent Change from Baseline, Median: −4.39%
[2]
  SHAQ Standard Disability Index: Baseline, Mean: 0.554
  SHAQ Standard Disability Index: Baseline, Median: 0.375
  SHAQ Standard Disability Index: Change from Baseline, Mean: −0.092
  SHAQ Standard Disability Index: Change from Baseline, Median: 0.000
  SHAQ Standard Disability Index: Day 12, Mean: 0.462
  SHAQ Standard Disability Index: Day 12, Median: 0.250
  SHAQ Standard Disability Index: Percent Change from Baseline, Mean: −5.99%
  SHAQ Standard Disability Index: Percent Change from Baseline, Median: −33.33%
  SHAQ VAS Breathing Problems: Baseline, Mean: 1.071
  SHAQ VAS Breathing Problems: Baseline, Median: 0.800
  SHAQ VAS Breathing Problems: Change from Baseline, Mean: 0.171
  SHAQ VAS Breathing Problems: Change from Baseline, Median: 0.000
  SHAQ VAS Breathing Problems: Day 12, Mean: 1.243
  SHAQ VAS Breathing Problems: Day 12, Median: 0.400
  SHAQ VAS Breathing Problems: Percent Change from Baseline, Mean: 103.99%
  SHAQ VAS Breathing Problems: Percent Change from Baseline, Median: 24.48%
  SHAQ VAS Finger Ulcers: Baseline, Mean: 1.986
  SHAQ VAS Finger Ulcers: Baseline, Median: 0.100
  SHAQ VAS Finger Ulcers: Change from Baseline, Mean: −0.950
  SHAQ VAS Finger Ulcers: Change from Baseline, Median: −0.050
  SHAQ VAS Finger Ulcers: Day 12, Mean: 1.367
  SHAQ VAS Finger Ulcers: Day 12, Median: 0.350
  SHAQ VAS Finger Ulcers: Percent Change from Baseline, Mean: −15.69%
  SHAQ VAS Finger Ulcers: Percent Change from Baseline, Median: −48.04%
  SHAQ VAS Intestinal Problems: Baseline, Mean: 0.886
  SHAQ VAS Intestinal Problems: Baseline, Median: 1.000
  SHAQ VAS Intestinal Problems: Change from Baseline, Mean: 0.271
  SHAQ VAS Intestinal Problems: Change from Baseline, Median: 0.000
  SHAQ VAS Intestinal Problems: Day 12, Mean: 1.157
  SHAQ VAS Intestinal Problems: Day 12, Median: 0.200
  SHAQ VAS Intestinal Problems: Percent Change from Baseline, Mean: 12.47%
  SHAQ VAS Intestinal Problems: Percent Change from Baseline, Median: 30.00%
  SHAQ VAS Overall Disease Severity: Baseline, Mean: 3.200
  SHAQ VAS Overall Disease Severity: Baseline, Median: 2.900
  SHAQ VAS Overall Disease Severity: Change from Baseline, Mean: −1.186
  SHAQ VAS Overall Disease Severity: Change from Baseline, Median: −1.500
  SHAQ VAS Overall Disease Severity: Day 12, Mean: 2.014
  SHAQ VAS Overall Disease Severity: Day 12, Median: 1.200
  SHAQ VAS Overall Disease Severity: Percent Change from Baseline, Mean: −44.99%
  SHAQ VAS Overall Disease Severity: Percent Change from Baseline, Median: −44.74%
  SHAQ VAS Pain: Baseline, Mean: 2.667
  SHAQ VAS Pain: Baseline, Median: 2.550
  SHAQ VAS Pain: Change from Baseline, Mean: −0.700
  SHAQ VAS Pain: Change from Baseline, Median: −0.650
  SHAQ VAS Pain: Day 12, Mean: 2.000
  SHAQ VAS Pain: Day 12, Median: 2.100
  SHAQ VAS Pain: Percent Change from Baseline, Mean: −33.40%
  SHAQ VAS Pain: Percent Change from Baseline, Median: −51.06%
  SHAQ VAS Raynaud's: Baseline, Mean: 2.314
  SHAQ VAS Raynaud's: Baseline, Median: 0.900
  SHAQ VAS Raynaud's: Change from Baseline, Mean: −1.014
  SHAQ VAS Raynaud's: Change from Baseline, Median: −0.300
  SHAQ VAS Raynaud's: Day 12, Mean: 1.300
  SHAQ VAS Raynaud's: Day 12, Median: 0.600
  SHAQ VAS Raynaud's: Percent Change from Baseline, Mean: −34.71%
  SHAQ VAS Raynaud's: Percent Change from Baseline, Median: −40.67%
[3]
  SHAQ patient reported disease severity, Change from Baseline, Mean: −1.214
  SHAQ patient reported disease severity, Change from Baseline, Median: −1.500
  SHAQ patient reported disease severity, In-Clinic Visit (Day 12), Mean: 1.486
  SHAQ patient reported disease severity, In-Clinic Visit (Day 12), Median: 1.200
[4]
  SHAQ patient reported disease severity, Percent Change from Baseline, Mean: −59.80%
  SHAQ patient reported disease severity, Percent Change from Baseline, Median: −55.86%
[5]
  SHAQ Alternative Disability Index: Change from Baseline, Mean: 0.000
  SHAQ Alternative Disability Index: Change from Baseline, Median: −0.063
  SHAQ Alternative Disability Index: In-Clinic Visit (Day 12), Mean: 0.438
  SHAQ Alternative Disability Index: In-Clinic Visit (Day 12), Median: 0.188
  SHAQ Alternative Disability Index: Percent Change from Baseline, Mean: −12.90%
  SHAQ Alternative Disability Index: Percent Change from Baseline, Median: −22.22%
  SHAQ Standard Disability Index: Change from Baseline, Mean: −0.063
  SHAQ Standard Disability Index: Change from Baseline, Median: 0.000
  SHAQ Standard Disability Index: In-Clinic Visit (Day 12), Mean: 0.500
  SHAQ Standard Disability Index: In-Clinic Visit (Day 12), Median: 0.188
  SHAQ Standard Disability Index: Percent Change from Baseline, Mean: −25.00%
  SHAQ Standard Disability Index: Percent Change from Baseline, Median: −16.67%
  SHAQ Visual Analogue Scale - Breathing Problems: Change from Baseline, Mean: −0.617
  SHAQ Visual Analogue Scale - Breathing Problems: Change from Baseline, Median: −0.400
  SHAQ Visual Analogue Scale - Breathing Problems: In-Clinic Visit (Day 12), Mean: 1.200
  SHAQ Visual Analogue Scale - Breathing Problems: In-Clinic Visit (Day 12), Median: 0.200
  SHAQ Visual Analogue Scale - Breathing Problems: Percent Change from Baseline, Mean: −8.17%
  SHAQ Visual Analogue Scale - Breathing Problems: Percent Change from Baseline, Median: −41.33%
  SHAQ Visual Analogue Scale - Finger Ulcers: Change from Baseline, Mean: −0.750
  SHAQ Visual Analogue Scale - Finger Ulcers: Change from Baseline, Median: −0.350
  SHAQ Visual Analogue Scale - Finger Ulcers: In-Clinic Visit (Day 12), Mean: 0.617
  SHAQ Visual Analogue Scale - Finger Ulcers: In-Clinic Visit (Day 12), Median: 0.350
  SHAQ Visual Analogue Scale - Finger Ulcers: Percent Change from Baseline, Mean: −17.08%
  SHAQ Visual Analogue Scale - Finger Ulcers: Percent Change from Baseline, Median: −50.82%
  SHAQ Visual Analogue Scale - Intestinal Problems: Change from Baseline, Mean: −1.083
  SHAQ Visual Analogue Scale - Intestinal Problems: Change from Baseline, Median: 0.000
  SHAQ Visual Analogue Scale - Intestinal Problems: In-Clinic Visit (Day 12), Mean: 1.300
  SHAQ Visual Analogue Scale - Intestinal Problems: In-Clinic Visit (Day 12), Median: 0.950
  SHAQ Visual Analogue Scale - Intestinal Problems: Percent Change from Baseline, Mean: −15.53%
  SHAQ Visual Analogue Scale - Intestinal Problems: Percent Change from Baseline, Median: −7.06%
  SHAQ Visual Analogue Scale - Overall Disease Severity: Change from Baseline, Mean: −1.350
  SHAQ Visual Analogue Scale - Overall Disease Severity: Change from Baseline, Median: −1.550
  SHAQ Visual Analogue Scale - Overall Disease Severity: In-Clinic Visit (Day 12), Mean: 1.733
  SHAQ Visual Analogue Scale - Overall Disease Severity: In-Clinic Visit (Day 12), Median: 1.300
  SHAQ Visual Analogue Scale - Overall Disease Severity: Percent Change from Baseline, Mean: −51.76%
  SHAQ Visual Analogue Scale - Overall Disease Severity: Percent Change from Baseline, Median: −51.72%
  SHAQ Visual Analogue Scale - Pain: Change from Baseline, Mean: −0.500
  SHAQ Visual Analogue Scale - Pain: Change from Baseline, Median: −0.250
  SHAQ Visual Analogue Scale - Pain: In-Clinic Visit (Day 12), Mean: 1.617
  SHAQ Visual Analogue Scale - Pain: In-Clinic Visit (Day 12), Median: 1.400
  SHAQ Visual Analogue Scale - Pain: Percent Change from Baseline, Mean: −29.23%
  SHAQ Visual Analogue Scale - Pain: Percent Change from Baseline, Median: −48.78%
  SHAQ Visual Analogue Scale - Raynaud's: Change from Baseline, Mean: −0.550
  SHAQ Visual Analogue Scale - Raynaud's: Change from Baseline, Median: −0.600
  SHAQ Visual Analogue Scale - Raynaud's: In-Clinic Visit (Day 12), Mean: 1.667
  SHAQ Visual Analogue Scale - Raynaud's: In-Clinic Visit (Day 12), Median: 1.250
  SHAQ Visual Analogue Scale - Raynaud's: Percent Change from Baseline, Mean: −18.64%
  SHAQ Visual Analogue Scale - Raynaud's: Percent Change from Baseline, Median: −38.67%
[6]
  SHAQ Standard Disability Index: Baseline, Mean: 0.482
  SHAQ Standard Disability Index: Baseline, Median: 0.375
  SHAQ Standard Disability Index: Change from Baseline, Mean: −0.054
  SHAQ Standard Disability Index: Change from Baseline, Median: 0.000
  SHAQ Standard Disability Index: Day 12, Mean: 0.429
  SHAQ Standard Disability Index: Day 12, Median: 0.125
  SHAQ Standard Disability Index: Percent Change from Baseline, Mean: −25.00%
  SHAQ Standard Disability Index: Percent Change from Baseline, Median: −16.67%
  SHAQ VAS Breathing Problems: Baseline, Mean: 1.557
  SHAQ VAS Breathing Problems: Baseline, Median: 0.200
  SHAQ VAS Breathing Problems: Change from Baseline, Mean: −0.529
